Ends that are not written are not given here.
Columns and labels:
20S proteasome = target: T1, 20S proteasome (Homo sapiens, UniProt P25788); assay: Co-immunoprecipitation of PR-39 and 20S subunits in ECV cells; format: binding; details: ECV304 cells transfected with PR-39 constructs; anti-PR-39 antibody
T1 construct: endogenous in cells; host or cells: ECV304 cells stably expressing porcine PR-39 constructs
Excerpt: In order to confirm that PR-39 and the a7 subunit interact in cells, a polyclonal anti-PR-39 antibody was used to immunoprecipitate PR-39 protein from EVC304 cells transfected with cDNA constructs corresponding either to the full length (EVC-PR-39) or exon 4 (39 amino acid C-terminal domain) (ECV-E4) of the porcine PR-39 gene.
Full-length porcine cDNA (containing the leader sequence) and a cDNA construct corresponding to the 4th exon of porcine PR-39 gene were cloned into eukaryotic expression vector pGRE5-2 (USB) and used to stably transfect an immortalized human endothelial cell line (ECV304, ATCC). For co-immunoprecipitation, wild type ECV, full-length PR-39 (ECV-PR-39) and exon 4 PR-39 (ECV-E4) transfected cells were cultured in 10% FBS-M199. Cells were lysed with the RIPA buffer, and equal amounts of total protein were pre-cleared with non-immune rabbit serum and protein G plus/protein A-agarose beads (Calbiochem). The cleared samples were incubated at 4° C. overnight with 20 μl of polyclonal anti-PR-39 antibody and 40 μl of protein G plus/protein A-agarose beads or with the beads alone. […]

IκBα [1] = assay: IκBα protein levels in ECV304 cells by Western blotting; format: cell-based, human; details: ECV cells, 2 hr exposure, 100 or 50 nM
Description: For IκBα expression studies, normally proliferating wild type ECV304 cells (ECV) or ECV-PR-39 and ECV-E4 cells were lysed in the loading buffer, subjected to electrophoresis on 10% SDS-PAGE gel and transferred to a PVDF membrane. IκBα expression was then determined by Western blotting with anti-IκBα antibody (Santa Cruz, Inc.). ECV304 cells treated for 2 hr with 10 μM of lactacystin (LC) were used as control.
Western blotting of ECV cell lysate was carried out following 2 hr exposure to buffer (0) or 100 or 50 nM of PR-39. […] Clearly, exposure of wild type ECV304 cells to the synthetic PR-39 peptide led to a dose-dependent increase in IκBα levels.

IκBα [2] = assay: IκBα degradation in mouse pancreas, caerulein-induced acute pancreatitis; format: in vivo; details: 10 mg/kg i.v. 1 hour before caerulein 50 μg/kg i.v.; 30 min later
Description: Male mice weighing 20-25 g (ICR, Charles River Laboratories, Wilmington, Mass.) were pretreated with PR-39 (10 mg/kg, i.v.) or physiological saline 1 hour before injecting 50 μg/kg i.v. of caerulein (Research Plus, Bayonne, N.J.) to induce acute pancreatitis. 30 min later the animals were sacrificed in a CO2 chamber and a 75-100 mg piece of pancreas was removed for Western blotting and NFκB gel shift assays.
As empirically shown, induction of acute pancreatitis by treatment with the cholecystokinin analog caerulein leads to the prompt disappearance of IκBα (FIG. 2B) and activation of NFκB-dependent transcription in the pancreas (FIG. 2C).

ICAM-1 and VCAM-1 = ICAM-1 and VCAM-1 expression in mouse infarct model; format: in vivo; details: transgenic αMHC-PR-39 mice vs control mice, coronary artery ligation, 1, 3 or 7 days
Excerpt: NFκB-dependent transcription is also activated following induction of ischemia in the heart, leading to increased expression of several adhesion molecules, including ICAM-1 and VCAM-1. To test the effect of PR-39 peptide on NFκB-dependent gene expression in this model, we assessed VCAM-1 and ICAM-1 protein levels following induction of myocardial infarction in transgenic mice expressing PR-39 cDNA in cardiac myocytes (αMHC-PR-39) and age-matched control mice. The result is given by FIG. 2D.
Transgenic mice stably expressing PR-39 in cardiac myocytes (αMHC-PR-39 mice) or litter mate controls (control mice) were subjected to acute coronary artery ligation as described (30) and randomized to intraperitoneal implantation of Alzet minipumps (Alza Corp, Palo Alto, Calif.) delivering 1 μg/kg/24 hr of PR-39 or buffer. Myocardial tissues collected 1, 3 or 7 days later were subjected to Western blot analysis for ICAM-1 and VCAM-1 gene expression that were normalized to expression levels prior to induction of infarction. Note the rapid increase in both ICAM-1 and VCAM-1 expression in control but not αMHC-PR-39 mice.
In contrast, induction of myocardial infarction had no effect on either ICAA-1 or VCAM-1 protein levels in αMHC-PR-39 mice.

p21, cyclin E and c-fos = assay: Levels of proteasome-regulated proteins by Western blotting; format: cell-based, human
Description: This is shown by FIG. 3C.
The level of proteasome-regulated cell cycle repressor p21, cyclin E and c-fos proteins were determined by Western blotting in U937 cells pretreated with various amounts of PR-39 and then exposed to TNF-α (1 ng/ml).

IκBα [3] = target: T2, IκBα (Homo sapiens, UniProt P25963); assay: In vitro IκBα ubiquitination assay with HeLa cell extract; details: cell free system, two different concentrations
T2 sequence (P25963 1-317): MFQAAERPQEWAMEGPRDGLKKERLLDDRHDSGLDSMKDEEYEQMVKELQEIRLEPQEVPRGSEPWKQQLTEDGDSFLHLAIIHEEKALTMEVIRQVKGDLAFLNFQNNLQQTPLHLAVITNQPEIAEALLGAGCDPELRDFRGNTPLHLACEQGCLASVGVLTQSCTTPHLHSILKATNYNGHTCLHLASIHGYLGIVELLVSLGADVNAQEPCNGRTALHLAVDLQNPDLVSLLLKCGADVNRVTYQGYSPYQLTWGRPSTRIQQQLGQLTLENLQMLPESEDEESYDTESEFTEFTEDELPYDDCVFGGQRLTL
Description: HeLa cells were harvested by centrifugation at 4,000 rpm. The packed cell volume was estimated, and the cells osmotically lysed by the addition of 5 volumes of hypotonic buffer (10 mM Tris-Cl, pH 7.9, 1.5 mM MgCl2, 10 mM KCl, 0.2 mM PMSF, 0.5 mM DTT). The mixture was incubated on ice for 10 minutes, then homogenized with 12 strokes of a Dounce homogenizer (B Type pestle). The crude lysate was centrifuged for 15 minutes at 4,000 rpm, followed by recentrifugation of the supernatant at 100,000×g for 30 minutes. This supernatant was concentrated by the addition of solid (NH4)2SO4 to 80% saturation, stirred at 4° C. for 30 minutes and centrifuged for 15 minutes at 12,000 rpm. The precipitate was resuspended in 1/5 volume of 20 mM Tris-Cl pH7.6, 20 mM KCl, 5 mM MgCl 2, 1 mM DTT, 0.5 mM PMSF, 5 μM Chymostatin and 20 μM E64, and dialyzed against >500 volumes of 20 mM Tris-Cl pH 7.6, 20 mM KCl, 5 mM MgCl2, 1 mM DTT, 10% glycerol at 4° C. overnight and stored at −70° C. until use.
PR-39 or control peptides were also added to individual reactions. […] The samples were then heated for 5 minutes at 95° C. and analyzed by SDA-PAGE on 4-15% acrylamide gradient gels (BioRad, Hurcules, Calif.). After electrophoresis, the gels were incubated with gentle stirring in 30% methanol 10% acetic acid, dried and analyzed using a Fuji phosphorimager. […]

Sequence: RRRPRPPYLPRPRPPPFFPPRLPPRIPPGFPPRFPPRFP [PR-39]
- binding to 20S proteasome (co-immunoprecipitation of α7 and α2 subunits) (20S proteasome): can bind to the 20S proteasome particle via an interaction with the a7 subunit
- IκBα protein levels (IκBα [1]): dose-dependent increase in IκBα protein levels
- IκBα in mouse pancreas (Western blotting) (IκBα [2]): preservation of IκBα
- NFκB-dependent gene expression (ICAM-1 and VCAM-1 protein levels) (ICAM-1 and VCAM-1): blocks NFκB-dependent gene expression
- levels of p21, cyclin E and c-fos (p21, cyclin E and c-fos; ECV304 cells): failed to demonstrate any effect
- proteasome-mediated degradation of p21, cyclin E and c-fos (p21, cyclin E and c-fos; U937 cells pretreated with various amounts, then TNF-α 1 ng/ml): lack of PR-39 dependent inhibition
- IκBα ubiquitination in vitro (IκBα [3]): failed to affect IκBα ubiquitination

Source: patent US7169604B1, “Method for PR-39 peptide mediated selective inhibition of IκBα degradation” (Beth Israel Deaconess Medical Center, priority 1998, dated 2007)
